Values quoted from earlier work in patent publication US20020102214A1, “Paramagnetic material-containing magnetic resonance external marker or calibration composition” (NYCOMED IMAGING AS., priority 1996, published 2002).

Conditions: at MRI fields, between 20° C. to 35° C., based on relaxivity data

In the case of `O=C([O-])CN(CCN(CC(=O)[O-])CC(=O)O)CCN(CC(=O)[O-])CC(=O)O.[Gd+3]` [GdDTPA], the “variation of signal intensity with temperature” value is listed as “about 20%”.
